From patent publication US7868028B2 (priority 2002, dated 2011)

What was measured:
[1] = tested on: voltage-gated sodium channel (site 1, [3H]Saxitoxin binding); set-up: species or system rat; for % inhibition: test concentration or dose not given here
Male Sprague-Dawley rats = details: rat, in vivo; note: test concentration or dose not given here

Compound | % inhibition [1] | also measured
Cl.N=c1n(Cc2ccccc2)c2ccccc2n1CC(O)c1ccc(Br)cc1 (stereo not shown) [Compound 63] | — (key: —: A dash (-) indicates less than 10% inhibition was observed in this test) | 
Cl.Cn1c(=N)n(CC(O)c2ccc(Cl)c(Cl)c2)c2ccccc21 (stereo not shown) [Compound 13] | 46% | IC50 [1]: 232 µM
Cl.N=c1n(CCN2CCOCC2)c2ccccc2n1CC(O)COc1ccc(Cl)cc1 (racemic) [Compound 35] | 20% | 
C=CCn1c(=N)n(CC(O)c2ccc(C)cc2)c2ccccc21.Cl (racemic) [Compound 50] | 33% | 
CCCCn1c(=N)n(CC(O)COc2ccc(Cl)cc2)c2ccccc21.Cl (racemic) [Compound 10] | 42% | IC50 [1]: 96 µM; Average % MPE 5 minutes (Male Sprague-Dawley rats): 26 % MPE; Average % MPE Day 4 (Male Sprague-Dawley rats): 19 % MPE
CC(C)(C)c1ccc(Cn2c(=N)n(CC(O)COc3ccccc3)c3ccccc32)cc1.Cl (stereo not shown) [Compound 12] | 59% | IC50 [1]: 34 µM
Cl.Cn1c(=N)n(CC(O)COc2ccccc2)c2ccccc21 (racemic) [Compound 44] | 27% | 
CCOc1ccc(C(O)Cn2c(=N)n(CCN3CCCCC3)c3ccccc32)cc1.Cl (racemic) [Compound 37] | 22% | 
Cl.Cn1c(=N)n(CC(O)C23CC4CC(CC(C4)C2)C3)c2ccccc21 (stereo not shown) [Compound 23] | 15% | 
Cl.N=c1n(Cc2ccc(Cl)cc2)c2ccccc2n1CC(O)COc1ccccc1 (stereo not shown) [Compound 14] | 16% | 
Cl.Cn1c(=N)n(CC(O)c2ccccc2)c2ccccc21 (stereo not shown) [Compound 65] | — (key: —: A dash (-) indicates less than 10% inhibition was observed in this test) | 
Cl.N=c1n(Cc2ccccc2)c2ccccc2n1CC(O)c1ccccc1 (racemic) [Compound 5] | 38% | IC50 [1]: 41 µM; Average % MPE 5 minutes (Male Sprague-Dawley rats): 100 % MPE; Average % MPE Day 4 (Male Sprague-Dawley rats): 7 % MPE
Cl.N=c1n(CCN2CCCCC2)c2ccccc2n1CC(O)COc1ccc(Cl)cc1 (racemic) [Compound 40] | 24% | 
Br.N=c1n(Cc2ccccc2)c2ccccc2n1CC(O)COCc1ccccc1 (stereo not shown) [Compound 71] | 34% | IC50 [1]: 30 µM; Average % MPE 5 minutes (Male Sprague-Dawley rats): 100 % MPE; Average % MPE Day 4 (Male Sprague-Dawley rats): 2 % MPE
CCCCn1c(=N)n(CC(O)c2ccc(Cl)cc2)c2ccccc21.Cl (stereo not shown) [Compound 53] | — (key: —: A dash (-) indicates less than 10% inhibition was observed in this test) | 
Cc1ccc(Cn2c(=N)n(CC(O)COc3ccccc3)c3ccccc32)cc1.Cl (racemic) [Compound 4] | 47% | IC50 [1]: 21 µM; Average % MPE 5 minutes (Male Sprague-Dawley rats): 100 % MPE; Average % MPE Day 4 (Male Sprague-Dawley rats): −2 % MPE
C=CCn1c(=N)n(CC(O)COc2ccccc2)c2ccccc21.Cl (stereo not shown) [Compound 41] | 25% | 
CCN(CC)CCn1c(=N)n(CC(O)COc2ccccc2)c2ccccc21.Cl (racemic) [Compound 55] | — (key: —: A dash (-) indicates less than 10% inhibition was observed in this test) | 
CCN(CC)CCn1c(=N)n(CC(O)c2ccc(C)cc2)c2ccccc21.Cl (stereo not shown) [Compound 28] | 17% | 
CCn1c(=N)n(CC(O)COc2ccc(Cl)cc2)c2ccccc21.Cl (racemic) [Compound 21] | 13% | 
Cl.N=c1n(Cc2ccccc2)c2ccccc2n1CC(O)c1ccco1 (stereo not shown) [Compound 67] | — (key: —: A dash (-) indicates less than 10% inhibition was observed in this test) | 
Cc1ccc(Cn2c(=N)n(CC(O)COc3ccc(Cl)cc3)c3ccccc32)cc1.Cl (stereo not shown) [Compound 52] | 37% | 

Compound | % inhibition [1] | also measured
Cl.Cn1c(=N)n(CC(O)COc2ccc(Cl)cc2)c2ccccc21 (racemic) [Compound 57] | — (key: —: A dash (-) indicates less than 10% inhibition was observed in this test) | 
Br.CCCCCCCCn1c(=N)n(CC(O)COc2ccccc2)c2ccccc21 (stereo not shown) [Compound 72] | 20% | IC50 [1]: 66 µM
COc1ccc(C(O)Cn2c(=N)n(C)c3ccccc32)cc1.Cl (racemic) [Compound 27] | 17% | 
Cl.N=c1n(Cc2ccc(Cl)cc2)c2ccccc2n1CC(O)COc1ccc(Cl)cc1 (stereo not shown) [Compound 15] | 11% | 
Cl.N=c1n(CCN2CCCCC2)c2ccccc2n1CC(O)c1cccc2ccccc12 (stereo not shown) [Compound 32] | 20% | 
CCN(CC)CCn1c(=N)n(CC(O)c2ccc(Cl)c(Cl)c2)c2ccccc21.Cl (stereo not shown) [Compound 42] | 25% | 
C=CCn1c(=N)n(CC(O)c2ccc(Cl)cc2)c2ccccc21.Cl (racemic) [Compound 64] | — (key: —: A dash (-) indicates less than 10% inhibition was observed in this test) | 
CC(C)(C)C(O)Cn1c(=N)n(Cc2ccccc2)c2ccccc21.Cl (stereo not shown) [Compound 26] | 17% | 
CN(C)CCn1c(=N)n(CC(O)c2ccc(Cl)c(Cl)c2)c2ccccc21.Cl (racemic) [Compound 51] | 36% | 
CCCn1c(=N)n(CC(O)COc2ccccc2)c2ccccc21.Cl (stereo not shown) [Compound 20] | 12% | 
Br.N=c1n(Cc2ccccc2)c2ccccc2n1CC(O)Cc1ccccc1 (racemic) [Compound 77] | 27% | IC50 [1]: 81 µM
Cl.N=c1n(CCN2CCCCC2)c2ccccc2n1CC(O)c1ccccc1 (stereo not shown) [Compound 30] | 18% | 
CC(C)(C)C(O)Cn1c(=N)n(CCN2CCCCC2)c2ccccc21.Cl (racemic) [Compound 69] | 18% | 
C=CCn1c(=N)n(CC(O)C(C)(C)C)c2ccccc21.Cl (racemic) [Compound 36] | 22% | 
CCCn1c(=N)n(CC(O)c2ccc(Cl)cc2)c2ccccc21.Cl (racemic) [Compound 48] | 32% | 
Cl.N=c1n(CCN2CCOCC2)c2ccccc2n1CC(O)c1ccco1 (racemic) [Compound 25] | 16% | 
C=CCn1c(=N)n(CC(O)COc2ccc(Cl)cc2)c2ccccc21.Cl (racemic) [Compound 46] | 29% | 
CCCn1c(=N)n(CC(C)O)c2ccccc21.Cl (stereo not shown) [Compound 61] | — (key: —: A dash (-) indicates less than 10% inhibition was observed in this test) | 
Cl.Cn1c(=N)n(CC(O)c2cccc3ccccc23)c2ccccc21 (stereo not shown) [Compound 58] | — (key: —: A dash (-) indicates less than 10% inhibition was observed in this test) | 
C=CCn1c(=N)n(CC(O)c2ccc(Br)cc2)c2ccccc21.Cl (racemic) [Compound 39] | 24% | 
CCn1c(=N)n(CC(O)COc2ccccc2)c2ccccc21.Cl (stereo not shown) [Compound 19] | 11% | 
COc1ccc(C(O)Cn2c(=N)n(CCN3CCCCC3)c3ccccc32)cc1.Cl (stereo not shown) [Compound 45] | 28% | 

Compound | % inhibition [1] | also measured
Br.N=c1n(Cc2cccc3ccccc23)c2ccccc2n1CC(O)COc1ccccc1 (racemic) [Compound 73] | — (key: —: A dash (-) indicates less than 10% inhibition was observed in this test) | IC50 [1]: 107 µM
CCCn1c(=N)n(CC(O)c2ccccc2)c2ccccc21.Cl (stereo not shown) [Compound 43] | 26% | 
CCCCn1c(=N)n(CC(O)c2ccc(Br)cc2)c2ccccc21.Cl (racemic) [Compound 62] | — (key: —: A dash (-) indicates less than 10% inhibition was observed in this test) | 
CC(O)Cn1c(=N)n(C)c2ccccc21.Cl (stereo not shown) [Compound 66] | — (key: —: A dash (-) indicates less than 10% inhibition was observed in this test) | 
CCCCn1c(=N)n(CC(O)c2ccccc2)c2ccccc21.Cl (stereo not shown) [Compound 18] | 11% | 
C=CCn1c(=N)n(CC(O)c2ccc(OCC)cc2)c2ccccc21.Cl (stereo not shown) [Compound 49] | 32% | 
Br.CCCCCCCCCCCn1c(=N)n(CC(O)COc2ccccc2)c2ccccc21 (racemic) [Compound 74] | 33% | IC50 [1]: 117 µM
Cl.Cn1c(=N)n(CC(O)c2cccs2)c2ccccc21 (stereo not shown) [Compound 34] | 20% | 
CCCn1c(=N)n(CC(O)COc2ccc(Cl)cc2)c2ccccc21.Cl (stereo not shown) [Compound 29] | 18% | 
COc1ccc(C(O)Cn2c(=N)n(Cc3ccccc3)c3ccccc32)cc1.Cl (racemic) [Compound 47] | 32% | 
Cl.N=c1n(Cc2ccc(Cl)cc2)c2ccccc2n1CC(O)c1ccco1 (racemic) [Compound 68] | — (key: —: A dash (-) indicates less than 10% inhibition was observed in this test) | 
CCCn1c(=N)n(CC(O)c2ccc(C)cc2)c2ccccc21.Cl (stereo not shown) [Compound 60] | — (key: —: A dash (-) indicates less than 10% inhibition was observed in this test) | 
CC(C)(C)C(O)Cn1c(=N)n(Cc2ccc(Cl)cc2)c2ccccc21.Cl (racemic) [Compound 59] | — (key: —: A dash (-) indicates less than 10% inhibition was observed in this test) | 
Cl.Cn1c(=N)n(CC(O)c2ccc(Cl)cc2)c2ccccc21 (stereo not shown) [Compound 54] | — (key: —: A dash (-) indicates less than 10% inhibition was observed in this test) | 
CC(O)Cn1c(=N)n(Cc2ccccc2)c2ccccc21.Cl (stereo not shown) [Compound 24] | 16% | 
Br.N=c1n(CCN(Cc2ccccc2)Cc2ccccc2)c2ccccc2n1CC(O)COc1ccccc1 (racemic) [Compound 76] | — (key: —: A dash (-) indicates less than 10% inhibition was observed in this test) | IC50 [1]: 100 µM
Cl.N=c1n(CCN2CCCCC2)c2ccccc2n1CC(O)c1cccs1 (stereo not shown) [Compound 38] | 22% | 
CCN(CC)CCn1c(=N)n(CC(O)c2ccc(OC)c(OC)c2)c2ccccc21.Cl (racemic) [Compound 31] | 19% | 
CCn1c(=N)n(CC(O)c2cccs2)c2ccccc21.Cl (stereo not shown) [Compound 17] | 11% | 
Cl.N=c1n(CCN2CCOCC2)c2ccccc2n1CC(O)COc1ccccc1 (racemic) [Compound 33] | 20% | 
Cl.N=c1n(CCN2CCOCC2)c2ccccc2n1CC(O)c1cccs1 (stereo not shown) [Compound 16] | 17% | 
CCN(CC)CCn1c(=N)n(CC(O)COc2ccc(Cl)cc2)c2ccccc21.Cl (racemic) [Compound 56] | — (key: —: A dash (-) indicates less than 10% inhibition was observed in this test) | 
